{"source": "patent US20220213156A1", "about": "“Peptides for use in therapy or prophylaxis of Herpesviridae-infections” (priority 2019, published 2022)", "key": {"HCMV TB40/E-ΔUL16-eGFP [1]": {"tested_on": "HCMV TB40/E-ΔUL16-eGFP", "test": "Infection assay on different cell types (HFF, ARPE-19, THP-1) with TB40E-ΔUL16-EGFP, IE+/DAPI+", "type": "cell-based, Human Cytomegalovirus", "conditions": "40 h", "method": "(§1) For the infection assays, the cells were sown in 96-well plates. Human foreskin fibroblasts (HFF) and ARPE-19 cells (Adult Retinal Pigment Epithelial cell line-19) were seeded with 10 000 cells in 200 μl medium per well, macrophages with 20 000 cells in 200 μl medium per well and THP with 50 000 cells in 200 μl per well. The cells were incubated overnight at 37° C. and 5% CO2 and treated the following day. A medium change to P/S-free medium was performed to avoid interaction between the antibiotics used and the peptide sequences. Afterwards the corresponding peptides were added in different concentrations and immediately afterwards the virus, the final volume was 100 μl per well. The virus of the strain TB40/E-ΔUL16-eGFP was used. TB40-ΔUL16-eGFP is a derivative of the strain TB40, in which the majority of the open reading frame UL16 has been replaced by the open reading frame of eGFP, essentially as described in detail for a homologous mutant of strain AD169 (Tischer et al., “Two-step red-mediated recombination for versatile high-efficiency markerless DNA manipulation in Escherichia coli”, Biotechniques, (2006), 40(2):191-7). […] The required volume of the virus stock was calculated using the titer according to the following formula: […]"}, "HCMV TB40/E-ΔUL16-eGFP [2]": {"tested_on": "HCMV TB40/E-ΔUL16-eGFP", "test": "Infection assay: HFF infected with TB40E-ΔUL16-EGFP and treated with HD5-derived peptides (screening, GFP+/DAPI+)", "type": "cell-based, Human Cytomegalovirus", "conditions": "75 μM peptide, MOI 0,5, 40 h, compared to other tested peptides", "method": "as §1"}}, "note": "Residues, ends and D or L forms follow the SMILES beside them."}
{"smiles": "C[C@H](N)C(=O)N[C@H](C(=O)N[C@@H](CS)C(=O)N[C@@H](Cc1ccc(O)cc1)C(=O)N[C@@H](CS)C(=O)N[C@@H](CCCNC(=N)N)C(=O)N[C@H](C(=O)NCC(=O)N[C@@H](CCCNC(=N)N)C(=O)O)[C@@H](C)O)[C@@H](C)O", "note": "[HD5 (1-9), ATCYCRTGR] (H-ATCYCRTGR-OH; N-terminus and C-terminus assumed)", "values": [{"measurement": "concentration from which HCMV infection is inhibited", "setting": "HCMV TB40/E-ΔUL16-eGFP [1]", "result": "≥ 50", "unit": "µM"}, {"measurement": "antiviral effect (infection rate GFP+/DAPI+)", "setting": "HCMV TB40/E-ΔUL16-eGFP [2]", "result": "excellent antiviral effect"}]}
